# Assay results taken from patent publication US9079876B2, “Imidazole derivatives and preparation method and use thereof” (Beijing Orbiepharm Co., Ltd., priority 2010, dated 2015).
# Assays:
# [1] = system: rat paw swelling induced by carrageenan; test: Rat paw swelling induced by carrageenan (inflammation model); format: in vivo, Wistar rats; conditions: 14 mg/kg intragastric
# Protocol: In vivo test: observation of the effect of compound 1 on rat paw swelling induced by carrageenan (inflammation model evaluation)
# 50 rats were randomized into 5 groups, with 10 animals in each group.
# The total volume prepared for each dose group was determined based on the actual weight of the animals. A corresponding volume of purified water was taken, and was added with a sample of the test compounds or of the positive control, to allow homogenous dispersion. Sodium carboxymethyl cellulose was subsequently added, to make a homogenous suspension without obvious agglomerates.
# Methods: 50 Wistar rats ([…], 167-199 g) were used in the study, with 25 males and 25 females. They were randomized into 5 groups, i.e. model group, positive control group, compound 1: low, middle and high dose groups. […] 1 hour after intragastric administration, 0.1 ml 1% carrageenan was intradermally injected in the right hind plantar paw to induce inflammation. After induction of inflammation, paw plantar volume and paw thickness were measured every another hour, consecutively for six times. Paw swelling rate (%) and inhibition rate (%) were calculated.
# Assay methods: volume of the rat right paw was determined using UGO Basile plethysmograph, and the liquid level was kept constant for in the same animal in each measurement; thickness of the right hind paw were measured at the depiction line in the central paw with a digital vernier caliper.
# The group mean and standard deviation of paw swelling rate in each group of animals were calculated, and then the following statistical analysis was performed. The test level was 0.05, and both statistical significance and biological significance were considered in the result analysis.
# Levene's Test was used for homogeneity of variance test. Single-factor analysis of variance (ANOVA) was used for statistical analysis, if no statistical significance (P>0.05) was found. Dunnett's test (parametric method) analysis was used for multiple comparison analysis, if ANOVA found statistical significance (P≦0.05).
# If there was heterogeneity of variance (P≦0.05), then the Kruskal-Wallis test was used. If the test result of Kruskal-Wallis test was statistically significant (P<0.05), then Dunnett's test (non-parametric method) was used for multiple comparison analysis.
# [2] = target: T1, cyclooxygenase-1 (COX-1 enzyme) (Homo sapiens, UniProt P23219); test: Human whole blood in vitro activity assay, COX-1 (TXB2 by EIA); format: cell-based; conditions: read-out: IC50 (μg/mL) COX-1 (converted)
# T1 construct: from tissue; host or cells: human whole blood without heparin (platelets) from healthy volunteers
# Protocol: (§1) Human whole blood in vitro activity study: inhibition of activity of cyclooxygenase-1 (COX-1 enzyme) and cyclooxygenase-2 (COX-2 enzyme) in human blood. […] The blood samples were divided into two parts: one was used for detecting COX-1 enzyme activity, and the other was used for detecting COX-2 enzyme activity. The compounds were dissolved in DMSO, and were prepared in advance into 2 μL solutions in respective concentrations of 500, 50, 5, 0.5, 0.05, 0.005, 0.0005 μg/mL. 200 μL whole blood without heparin was added in the tubes containing the compounds, and then incubated at 37° C. for 1 hour. The activity of COX-1 enzyme was detected by determining the amount of thromboxane B2 (TXB2) synthesized by platelet using an EIA kit. Samples tested without the compounds were negative controls. For COX-2, 200 μL whole blood with heparin was added in the tubes containing the compounds and in the tubes containing 10 μg/mL LPS. LPS control and blank control with solvent only were used respectively for determining the maximum value and the background value of the PGE2 produced therefrom. The samples were incubated at 37° C. for 24 hours, and then centrifuged to collect serum/plasma, which was stored at −80° C. for detection by an EIA kit. The EIA kit of Cayman Company was used, the amounts of TXB2 and PGE2 were determined in accordance to the manufacturer's instructions, and the activities of COX-1 and COX-2 were tested respectively.
# [3] = target: T2, cyclooxygenase-2 (COX-2 enzyme) (Homo sapiens, UniProt P35354); test: Human whole blood in vitro activity assay, COX-2 (LPS-induced PGE2 by EIA); format: cell-based; conditions: for IC50: LPS, PGE2, read-out: IC50 (μg/mL) COX-2 (converted)
# T2 construct: from tissue; host or cells: heparinised human whole blood from healthy volunteers, stimulated with LPS
# T2 sequence (P35354 18-604): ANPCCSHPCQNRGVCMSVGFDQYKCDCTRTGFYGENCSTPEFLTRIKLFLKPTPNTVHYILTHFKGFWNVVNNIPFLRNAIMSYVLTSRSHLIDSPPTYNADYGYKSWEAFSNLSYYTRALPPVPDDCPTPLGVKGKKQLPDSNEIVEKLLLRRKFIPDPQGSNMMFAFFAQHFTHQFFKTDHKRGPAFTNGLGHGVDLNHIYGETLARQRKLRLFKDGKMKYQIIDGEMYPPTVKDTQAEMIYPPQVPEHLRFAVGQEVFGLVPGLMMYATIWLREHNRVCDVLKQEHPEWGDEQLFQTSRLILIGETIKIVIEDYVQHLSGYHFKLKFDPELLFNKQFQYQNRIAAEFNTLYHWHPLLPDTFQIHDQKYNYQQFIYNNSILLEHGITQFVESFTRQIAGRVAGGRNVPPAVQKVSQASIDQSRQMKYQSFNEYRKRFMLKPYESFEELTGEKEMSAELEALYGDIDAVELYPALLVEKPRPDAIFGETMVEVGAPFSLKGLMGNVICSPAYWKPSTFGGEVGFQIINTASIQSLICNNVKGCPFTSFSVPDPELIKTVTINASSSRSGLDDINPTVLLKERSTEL
# Protocol: as §1
# [4] = system: mice tail suspension immobility time; test: Tail suspension test in mice (anti-depression model); format: in vivo, Male Kunming mice; conditions: 20 mg/kg intragastric, in s (unit assumed)
# Protocol: In Vivo Test: Tail Suspension Test in Mice (Evaluation on an Anti-Depression Model)
# Male Kunming mice, approximately 20 g, were randomized into six groups, i.e. normal group, positive drug group (fluoxetine 20 mg/kg), compound 1: group A 5 mg/kg, group B 10 mg/kg, group C 20 mg/kg, and group D 40 mg/kg.
# Single Dose Test: Mice were normally fed for 1 day and allowed to adapt to the environment. Then the mice were fasted (except water) for 16 hours, and were intragastrically administrated with a single dose of the compound. The normal group was intragastrically administrated with an equivalent amount of distilled water. 40 min after the administration, the mice were inverted and fixed to a tail suspension device, and the distance between the head and the desktop was about 30 cm. Immobility time was recorded with an analysis record system, for the latter 4 min within the 6 min recording period, and was used for statistical analysis.
# (§2) Study with Three-Day Consecutive Dosing: Mice were normally fed for 1 day and allowed to adapt to the environment. Then the mice were intragastrically administrated with the test drug for 3 consecutive days (once per day), and the normal group was intragastrically administrated with an equivalent amount of distilled water. The mice were fasted (except water) for 16 hours before the last dosing. 40 min after the last dosing, the mice were inverted and fixed to the tail suspension device, and the distance between the head and the desktop was about 30 cm. Immobility time was recorded with an analysis record system, for the latter 4 min within the 6 min recording period, and was used for statistical analysis.
# as §2, with “with Seven-Day” for “with Three-Day”, “intragastrically dosed” for “intragastrically administrated with the test drug”, “for 7” for “for 3”, “days (once/day),” for “days (once per day),”, “last administration.” for “last dosing.”, “last administration,” for “last dosing,”
# [5] = system: mice forced swimming immobility time; test: Forced swimming test in mice (anti-depression model); format: in vivo, Male Kunming mice; conditions: 20 mg/kg intragastric, in s (unit assumed)
# Protocol: In Vivo Study: The Forced Swimming Test in Mice (Evaluation on Anti-Depression Model)
# Male Kunming mice, approximately 20 g, were randomized into six groups, i.e. normal group, positive drug group (fluoxetine 20 mg/kg), group A (5 mg/kg Compound 1), group B (10 mg/kg Compound 1), group C (20 mg/kg Compound 1), and group D (40 mg/kg Compound 1).
# Single Dose Test: Mice were normally fed for 1 day and allowed to adapt to the environment. Then the mice were fasted (except water) for 16 hours, and were intragastrically administrated with a single dose of the test drug, and the normal group was intragastrically administrated with an equivalent amount of distilled water. 40 min after administration, the mice were placed in forced swimming test device (swimming environment: pool diameter 12.5 cm cylinder, water temperature 25° C. and water depth 10 cm). Mice swam for six minutes, and the immobility time (i.e., the time during which the limbs were immobile, or only the feet were thrashing or paddling) was recorded with an animal behavioral record system, for the latter 4 min within the 6 min recording period, and was used for statistical analysis.
# (§3) Study with Three-Day Consecutive Dosing: Mice were normally fed for 1 day and allowed to adapt to the environment. Then the mice were intragastrically administrated with the test drug consecutively for three days (once per day). The normal group was intragastrically administrated equivalent amount of distilled water. Mice were fasted (except water) for 16 hours before the last dosing. 40 min after the last dosing, the mice were placed in forced swimming test device (swimming environment: pool diameter 12.5 cm cylinder, water temperature 25° C. and water depth 10 cm). Mice swam for six minutes, and the immobility time (i.e., the time during which the limbs were immobile, or only the feet were thrashing or paddling) was recorded with an animal behavioral record system, for the latter 4 min within the 6 min recording period, and was used for statistical analysis.
# as §3, with “Seven-Day” for “Three-Day”, “seven” for “three”
# [6] = 3 days consecutive administration
# [7] = 7 days consecutive administration
# [8] = single dose, 40 min after administration
# T1 sequence (P23219 24-599): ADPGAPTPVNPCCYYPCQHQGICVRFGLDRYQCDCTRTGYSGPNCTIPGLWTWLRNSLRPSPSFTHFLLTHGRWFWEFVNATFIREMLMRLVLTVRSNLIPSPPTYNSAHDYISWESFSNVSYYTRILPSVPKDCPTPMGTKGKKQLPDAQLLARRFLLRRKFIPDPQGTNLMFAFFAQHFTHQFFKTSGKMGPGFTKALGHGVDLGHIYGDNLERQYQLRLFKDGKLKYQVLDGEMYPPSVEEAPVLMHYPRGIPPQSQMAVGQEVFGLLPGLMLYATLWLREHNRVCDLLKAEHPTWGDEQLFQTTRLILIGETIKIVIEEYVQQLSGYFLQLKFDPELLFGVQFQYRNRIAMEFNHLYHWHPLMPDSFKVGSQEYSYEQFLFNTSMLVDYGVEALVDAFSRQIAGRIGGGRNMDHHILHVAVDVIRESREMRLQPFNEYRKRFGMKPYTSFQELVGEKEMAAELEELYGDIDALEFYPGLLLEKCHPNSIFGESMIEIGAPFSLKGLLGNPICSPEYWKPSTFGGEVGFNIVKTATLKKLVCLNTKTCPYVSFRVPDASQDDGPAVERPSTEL
smiles,measurement,setting,value
"Cc1ccc(-c2cc(C(F)(F)F)nn2-c2ccc(S(N)(=O)=O)cc2)cc1 [Celecoxib, reference compound]",inhibition rate of plantar paw thickness swelling,[1]; 1 h after inflammation,30.02%
same,inhibition rate of plantar paw volume swelling,[1]; 1 h after inflammation,0.26%
same,plantar paw thickness swelling rate,[1]; 1 h after inflammation,7.69 ± 3.31%
same,plantar paw volume swelling rate,[1]; 1 h after inflammation,10.87 ± 6.32%
same,inhibition rate of plantar paw thickness swelling,[1]; 2 h after inflammation,60.28%
same,inhibition rate of plantar paw volume swelling,[1]; 2 h after inflammation,38.81%
same,plantar paw thickness swelling rate,[1]; 2 h after inflammation,6.30 ± 2.55 %
same,plantar paw volume swelling rate,[1]; 2 h after inflammation,10.71 ± 6.01 %
same,inhibition rate of plantar paw thickness swelling,[1]; 3 h after inflammation,73.09%
same,inhibition rate of plantar paw volume swelling,[1]; 3 h after inflammation,66.24%
same,plantar paw thickness swelling rate,[1]; 3 h after inflammation,4.64 ± 1.99 %
same,plantar paw volume swelling rate,[1]; 3 h after inflammation,7.16 ± 5.15 %
same,inhibition rate of plantar paw thickness swelling,[1]; 4 h after inflammation,80.52%
same,inhibition rate of plantar paw volume swelling,[1]; 4 h after inflammation,64.29%
same,plantar paw thickness swelling rate,[1]; 4 h after inflammation,3.71 ± 2.58 %
same,plantar paw volume swelling rate,[1]; 4 h after inflammation,9.68 ± 6.13 %
same,inhibition rate of plantar paw thickness swelling,[1]; 5 h after inflammation,82.31%
same,inhibition rate of plantar paw volume swelling,[1]; 5 h after inflammation,56.44%
same,plantar paw thickness swelling rate,[1]; 5 h after inflammation,3.34 ± 2.56 %
same,plantar paw volume swelling rate,[1]; 5 h after inflammation,12.22 ± 6.90 %
same,inhibition rate of plantar paw thickness swelling,[1]; 6 h after inflammation,82.40%
same,inhibition rate of plantar paw volume swelling,[1]; 6 h after inflammation,57.00%
same,plantar paw thickness swelling rate,[1]; 6 h after inflammation,2.72 ± 2.51 %
same,plantar paw volume swelling rate,[1]; 6 h after inflammation,11.91 ± 5.41 %
"CS(=O)(=O)c1ccc(-n2cncc2-c2ccccc2)nc1 [Compound 1E, 5-(methylsulfonyl)-2-(5-phenyl-1H-imidazol-1-yl)pyridine]",IC50,[2],86.5 µM
same,IC50COX-1/IC50COX-2,[3],11.6
same,IC50,[3],7.45 µM
"CS(=O)(=O)c1ccc(-n2cnc(Cl)c2-c2ccc(Cl)cc2Cl)nc1 [Compound 4, 2-(4-chloro-5-(2,4-dichlorophenyl)-1H-imidazol-1-yl)-5-(methylsulfonyl)pyridine]",IC50,[2],45.6 µM
same,IC50COX-1/IC50COX-2,[3],26.2
same,IC50,[3],1.74 µM
"COc1ccc(-c2c(Cl)ncn2-c2ccc(S(C)(=O)=O)cn2)cc1 [Compound 5, 2-(4-chloro-5-(4-methoxyphenyl)-1H-imidazol-1-yl)-5-(methylsulfonyl)pyridine]",IC50,[2],0.632 µM
same,IC50COX-1/IC50COX-2,[3],4.6
same,IC50,[3],0.137 µM
"COc1ccc(-c2c(Cl)ncn2-c2ccc(S(C)(=O)=O)cn2)cc1F [Compound 6, 2-(4-chloro-5-(3-fluoro-4-methoxyphenyl)-1H-imidazol-1-yl)-5-(methylsulfonyl)pyridine]",IC50,[2],8.8 µM
same,IC50COX-1/IC50COX-2,[3],25.8
same,IC50,[3],0.34 µM
"CS(=O)(=O)c1ccc(-n2cnc(Cl)c2-c2cccnc2)nc1 [Compound 7, 2-(4-chloro-5-(pyridin-3-yl)-1H-imidazol-1-yl)-5-(methylsulfonyl)pyridine]",IC50,[2],54 µM
same,IC50COX-1/IC50COX-2,[3],19.0
same,IC50,[3],2.84 µM
"CS(=O)(=O)c1ccc(-n2cnc(Cl)c2-c2ccccc2)cn1 [Compound 8, 5-(4-chloro-5-phenyl-1H-imidazol-1-yl)-2-(methylsulfonyl)pyridine]",IC50,[2],> 1500 µM
same,IC50COX-1/IC50COX-2,[3],>416
same,IC50,[3],3.59 µM
"CS(=O)(=O)c1ccc(-n2cncc2-c2ccccc2)cn1 [Compound 8E, 2-(methylsulfonyl)-5-(5-phenyl-1H-imidazol-1-yl)pyridine]",IC50,[2],187 µM
same,IC50,[3],> 1670 µM
"CNCCC(Oc1ccc(C(F)(F)F)cc1)c1ccccc1 (centres unmarked) [fluoxetine, reference compound]",tail suspension Immobility time,[4]; [6],33.95 ± 10.50
same,tail suspension Immobility time,[4]; [7],33.76 ± 10.47
same,tail suspension Immobility time,[4]; [8],43.52 ± 20.21
same,forced swimming Immobility time,[5]; [6],82.42 ± 32.07
same,forced swimming Immobility time,[5]; [7],90.94 ± 31.73
same,forced swimming Immobility time,[5]; [8],105.04 ± 37.98
